Key:
[1] = system: Spodoptera littoralis (Egyptian Cotton Leaf Worm); experiment: whole plant or invertebrate; conditions: in Gossypium barbadense, foliar, 72 h, read-out: control (mortality, anti-feeding effect, growth inhibition)
[2] = system: Plutella xylostella (Diamond Back Moth); experiment: whole plant or invertebrate; assay type: in vivo; conditions: 120 h, application rate of 200 ppm, L2 larvae on treated artificial diet, 5 days after infestation, read-out: effect in at least one of the two categories (mortality or growth inhibition)
[3] = system: Bemisia tabaci (Cotton White Fly); conditions: in Gossypium hirsutum, foliar, 144 h
[4] = system: Myzus persicae (Green Peach Aphid); experiment: whole plant or invertebrate; assay type: in vivo; conditions: 144 h, test rate of 24 ppm, systemic, roots of infested pea seedlings in test solution, 6 days
[5] = system: Myzus persicae (Green Peach Aphid); experiment: whole plant or invertebrate; conditions: foliar, 144 h
[6] = system: Diabrotica Balteata (Corn Root Worm); experiment: Diabrotica balteata (Corn Root Worm); conditions: in Zea mays, 96 h, read-out: effect in at least one of the two categories (mortality or growth inhibition)
[7] = system: Euschistus heros (Neotropical Brown Stink Bug); experiment: whole plant or invertebrate; assay type: in vivo; conditions: 120 h, application rate of 200 ppm, N2 nymphs on sprayed soybean leaves, 5 days after infestation, read-out: effect in at least one of the two categories (mortality or growth inhibition)

CCS(=O)(=O)c1cc(OCCOC)cnc1-c1nc2cc(C(F)(F)F)ncc2n1C [Compound P8, 2-[3-ethylsulfonyl-5-(2-methoxyethoxy)-2-pyridyl]-3-methyl-6-(trifluoromethyl)imidazo[4,5-c]pyridine]
≥ 80%: mortality at 200 ppm [1] | percent effect (mortality or growth inhibition) at 200 ppm [2] | mortality at 200 ppm [3] | mortality at 24 ppm [4] | mortality at 200 ppm [5] | mortality at 200 ppm [6] | percent effect (mortality or growth inhibition) at 200 ppm [7]

CCS(=O)(=O)c1cc(OCC(F)(F)F)cnc1-c1nc2cc(C(F)(F)F)ncc2n1C [Compound P15, 2-[3-ethylsulfonyl-5-(2,2,2-trifluoroethoxy)-2-pyridyl]-3-methyl-6-(trifluoromethyl)imidazo[4,5-c]pyridine]
≥ 80%: mortality at 200 ppm [1] | percent effect (mortality or growth inhibition) at 200 ppm [2] | mortality at 200 ppm [3] | mortality at 24 ppm [4] | mortality at 200 ppm [5] | mortality at 200 ppm [6] | percent effect (mortality or growth inhibition) at 200 ppm [7]

CCS(=O)(=O)c1cc(OCC(F)F)cnc1-c1nc2cc(C(F)(F)F)ncc2n1C [Compound P16, 2-[5-(2,2-difluoroethoxy)-3-ethylsulfonyl-2-pyridyl]-3-methyl-6-(trifluoromethyl)imidazo[4,5-c]pyridine]
≥ 80%: mortality at 200 ppm [1] | percent effect (mortality or growth inhibition) at 200 ppm [2] | mortality at 200 ppm [3] | mortality at 24 ppm [4] | mortality at 200 ppm [5] | mortality at 200 ppm [6] | percent effect (mortality or growth inhibition) at 200 ppm [7]

CCS(=O)(=O)c1cc(OC(C)(C)CF)cnc1-c1nc2cc(C(F)(F)F)ncc2n1C [Compound P30, 2-[3-ethylsulfonyl-5-(2-fluoro-1,1-dimethyl-ethoxy)-2-pyridyl]-3-methyl-6-(trifluoromethyl)imidazo[4,5-c]pyridine]
≥ 80%: mortality at 200 ppm [1] | percent effect (mortality or growth inhibition) at 200 ppm [2] | mortality at 200 ppm [3] | mortality at 24 ppm [4] | mortality at 200 ppm [5] | mortality at 200 ppm [6] | percent effect (mortality or growth inhibition) at 200 ppm [7]

CCS(=O)(=O)c1cc(OC(C)F)cnc1-c1nc2cc(C(F)(F)F)ncc2n1C (stereo not drawn) [Compound P40, 2-[3-ethylsulfonyl-5-(1-fluoroethoxy)-2-pyridyl]-3-methyl-6-(trifluoromethyl)imidazo[4,5-c]pyridine]
≥ 80%: mortality at 200 ppm [1] | percent effect (mortality or growth inhibition) at 200 ppm [2] | mortality at 200 ppm [3] | mortality at 24 ppm [4] | mortality at 200 ppm [5] | mortality at 200 ppm [6] | percent effect (mortality or growth inhibition) at 200 ppm [7]

CCS(=O)(=O)c1cc(OC2CC(F)(F)C2)cnc1-c1nc2cc(C(F)(F)F)ncc2n1C [Compound P42, 2-[5-(3,3-difluorocyclobutoxy)-3-ethylsulfonyl-2-pyridyl]-3-methyl-6-(trifluoromethyl)imidazo[4,5-c]pyridine]
≥ 80%: mortality at 200 ppm [1] | percent effect (mortality or growth inhibition) at 200 ppm [2] | mortality at 200 ppm [3] | mortality at 24 ppm [4] | mortality at 200 ppm [5] | mortality at 200 ppm [6] | percent effect (mortality or growth inhibition) at 200 ppm [7]

— patent US20200216441A1, “PESTICIDALLY ACTIVE HETEROCYCLIC DERIVATIVES WITH SULFUR CONTAINING SUBSTITUENTS” (SYNGENTA PARTICIPATIONS AG, priority 2017, published 2020)
